In patent publication EP0553186B1, “METHOD FOR PRODUCING T H?-I[…] T LYMPHOCYTES” (IMMUNEX CORPORATION, priority 1990, dated 1992):

Tested on: CD8^+ T cell clone T81
Assay: Outgrowth of T81 CTL under G418 drug selection
Type: cell-based, mouse
Settings: parental T81 cells, doses used for selection
Procedure: • A. Selection of CD8^+T cell clone T81 transduced with retroviral vector L.IL-1RSN encoding murine IL-1R. The retroviral vector L.IL-1RSN encoding the murine IL-1 receptor was introduced into the tumor specific CD3^+, CD8^+ T cell clone T81 as follows. T81 is specific for an antigen expressed on the K1735 mouse melanoma cell line. T81 was propagated by stimulation every 8-10 days with tumor antigen and irradiated syngeneic splenocytes as feeder cells. Recombinant IL-2 (50 U/ml) was added to the cultures 48 hours following stimulation. […] The cells were analyzed for M5 binding on a Beckton-Dickinson FACscan analyzer. […] The IL-1 receptors on the T81 cells infected with the L.IL-1RSN vector were analyzed for ^125I-IL-1α binding as previously described (Dower et al., Nature (Lond) 324 :266,1986). […] Nonspecific binding of ^125I-IL-1 was measured by incubation in the presence of an excess of unlabelled IL-1. At the end of the incubation, bound and free ^125I-IL-1 were separated by centrifugation over a phthalate oil mixture and the amount of radiolabel in each fraction measured. The data were corrected for non-specific binding and then analyzed by nonlinear least square fitting to estimate the number of IL-1R/cell. […]

CN[C@@H]1[C@@H](O)[C@@H](O[C@@H]2[C@@H](O)[C@H](O[C@H]3O[C@H]([C@@H](C)O)[C@@H](O)[C@H](O)[C@H]3N)[C@@H](N)C[C@H]2N)OC[C@]1(C)O [G418]
toxicity of G418 to cells: toxic to the parental cells
